Reference: patent US9155699B2, “Pulmonary delivery for levodopa” (Civitas Therapeutics, Inc., priority 2002, dated 2015)

Key:
[1] = 120 minutes after administration
[2] = in vivo; conditions: plasma

Structure (SMILES): N[C@@H](Cc1ccc(O)c(O)c1)C(=O)O [L-Dopa, Levodopa]
- plasma level, methods of the invention compared to oral administration [1]: twice as high
- concentration at 2 min ([2]; inhaled): 5000 ng/mL
- concentration at 2 min ([2]; po): 1000 ng/mL
